Blank lines part the entries; values can stand above or below the compound they belong to.
Tests used:
[1] = In vivo pharmacokinetic study in female Balb/c Nude mice; set-up: species or system mouse
Method: Experimental procedure: The purpose of this study is to determine the pharmacokinetic parameters of the compound and calculate its gavage bioavailability in female Balb/c Nude mice.
Six female Balb/c Nude mice were used in this project, three mice were injected intravenously, with the dosage of 1 mg/kg, where plasma samples at 0 h (before administration) and at 0.0833, 0.25, 0.5, 1, 2, 4, 6, 8 and 24 h after administration were collected, and the other three mice were administered intragastrically with the dose of 10 mg/kg or 25 mg/kg, where plasma samples at 0 h (before administration) and at 0.5, 1, 2, 3, 4, 6, 8, 24 h after administration were collected. LC-MS/MS analysis was performed on the collected samples and data were collected. The collected analysis data were calculated with Phoenix WinNonlin 6.2.1 software for relevant pharmacokinetic parameters.
Note: C0 (nM) is the concentration of the drug in the body at 0 min; Cl (mL/min/kg) is the clearance rate of the drug in the body; Vdss (L/kg) is the volume of distribution of the drug in the body; T1/2 (h) is the half-life; AUC0-t (nM·h) is the amount of drug exposure in the body; Cmax (nM) is the highest concentration of the drug in the body; F is the bioavailability.

[2] = Solid stability test of Crystal Form A under high temperature and high humidity; format: physicochemical; details: 40° C./75% humidity
Method: Two samples of Crystal Form A were weighed in parallel, each about 100 mg, placed on the bottom of a glass sample bottle and spread into a thin layer. The samples were sealed with aluminum foil paper, and some small holes were pierced in the aluminum foil paper to ensure that the sample can fully contact with the ambient air. The samples were placed at a constant temperature and humidity box under the condition of 40° C./75% humidity. The samples under the above conditions were sampled and tested on day 30, and the test results were compared with the initial test result on day 0.

[3] = Solid physical stability tests of Crystal Form A under different temperature, humidity and light conditions; format: physicochemical; details: Day 10, XRPD
Method: Four samples of Crystal Form A were weighed in parallel, each about 100 mg, placed on the bottom of a glass sample bottle and spread into a thin layer. The samples were sealed with aluminum foil paper, and some small holes were pierced in the aluminum foil paper to ensure that the sample can fully contact with the ambient air. Four prepared samples were placed in 25° C./92.5% relative humidity, 60° C., 40° C./75% and light conditions, respectively, and the physical stability of the samples on the 10th day was investigated. At the same time, a sample of about 100 mg of Crystal Form A was weighed separately, placed on the bottom of the glass sample bottle, sealed with a screw cap, and stored at −20° C. for use as control. On the 10th day, all the samples were taken out, returned to room temperature, and the appearance changes of the samples were observed. XRPD was used to detect the sample crystal forms. By comparing the accelerated samples with the control sample, the solid physical stability of Crystal Form A of the compound of formula (I) was determined.

[4] = Solid stability tests of Crystal Form B under high temperature, high humidity and light conditions; format: physicochemical
Excerpt: The samples were sealed with aluminum foil paper, and some small holes were pierced in the aluminum foil paper to ensure that the sample can fully contact with the ambient air. The samples were placed in a constant temperature and humidity or light box under different humidity conditions. […] The test results were compared with the initial test results on day 0.

- F ([1]; 10 mg/kg intragastric): 129.0%
- AUC ([1]; mouse, plasma, 1 mg/kg IV, read-out: AUC04): 1.09 µM·h
SMILES: Cc1cnn(C)c1-c1cc(N2CCOC[C@H]2C)nc(-c2cc(CO)cc3[nH]ccc23)n1 [Compound of formula (1)]

- Appearance ([2]; day 0): White
- Content ([2]; day 0): 99.61%
- Crystal Form ([2]; day 0): Form A
- Total impurity ([2]; day 0): 0.39%
- Appearance ([2]; day 30): White
- Content ([2]; day 30): 99.59%
- Crystal Form ([2]; day 30): Form A
- Total impurity ([2]; day 30): 0.45%
- Crystal Form ([3]; 25° C./92.5% relative humidity (open)): Form A
- Crystal Form ([3]; 40° C./75% relative humidity (open)): Form A
- Crystal Form ([3]; 60° C. (open)): Form A
- Crystal Form ([3]; light): Form A
- Crystal Form ([3]; −20° C. sealed (control)): Form A
SMILES: Cc1cnn(C)c1-c1cc(N2CCOC[C@H]2C)nc(-c2cc(CO)cc3[nH]ccc23)n1 [Crystal Form A]

- Content ([4]; 25° C./65% RH, 3 month): 98.4%
- Crystal Form ([4]; 25° C./65% RH, 3 month): Crystal Form B
- Total impurity ([4]; 25° C./65% RH, 3 month): 0.45%
- Content ([4]; 25° C./65% RH, 6 month): 99.8%
- Crystal Form ([4]; 25° C./65% RH, 6 month): Crystal Form B
- Total impurity ([4]; 25° C./65% RH, 6 month): 0.43%
- Content ([4]; 25° C./65% RH, day 0): 99.0%
- Crystal Form ([4]; 25° C./65% RH, day 0): Crystal Form B
- Total impurity ([4]; 25° C./65% RH, day 0): 0.42%
- Content ([4]; 25° C./92.5% RH, day 0): 99.0%
- Crystal Form ([4]; 25° C./92.5% RH, day 0): Crystal Form B
- Total impurity ([4]; 25° C./92.5% RH, day 0): 0.42%
- Content ([4]; 25° C./92.5% RH, day 5): 98.9%
- Crystal Form ([4]; 25° C./92.5% RH, day 5): Crystal Form B
- Total impurity ([4]; 25° C./92.5% RH, day 5): 0.44%
- Content ([4]; 25° C./92.5% RH, day 10): 100.1%
- Crystal Form ([4]; 25° C./92.5% RH, day 10): Crystal Form B
- Total impurity ([4]; 25° C./92.5% RH, day 10): 0.41%
- Content ([4]; 25° C./92.5% RH, day 30): 99.7%
- Crystal Form ([4]; 25° C./92.5% RH, day 30): Crystal Form B
- Total impurity ([4]; 25° C./92.5% RH, day 30): 0.41%
- Content ([4]; 40° C./75% RH, 1 month): 100.6%
- Crystal Form ([4]; 40° C./75% RH, 1 month): Crystal Form B
- Total impurity ([4]; 40° C./75% RH, 1 month): 0.45%
- Content ([4]; 40° C./75% RH, 2 month): 100.4%
- Crystal Form ([4]; 40° C./75% RH, 2 month): Crystal Form B
- Total impurity ([4]; 40° C./75% RH, 2 month): 0.42%
- Content ([4]; 40° C./75% RH, 3 month): 98.8%
- Crystal Form ([4]; 40° C./75% RH, 3 month): Crystal Form B
- Total impurity ([4]; 40° C./75% RH, 3 month): 0.44%
- Content ([4]; 40° C./75% RH, 6 month): 99.8%
- Crystal Form ([4]; 40° C./75% RH, 6 month): Crystal Form B
- Total impurity ([4]; 40° C./75% RH, 6 month): 0.43%
- Content ([4]; 40° C./75% RH, day 0): 99.0%
- Crystal Form ([4]; 40° C./75% RH, day 0): Crystal Form B
- Total impurity ([4]; 40° C./75% RH, day 0): 0.42%
- Content ([4]; 60° C., day 0): 99.0%
- Crystal Form ([4]; 60° C., day 0): Crystal Form B
- Total impurity ([4]; 60° C., day 0): 0.42%
- Content ([4]; 60° C., day 5): 101.5%
- Crystal Form ([4]; 60° C., day 5): Crystal Form B
- Total impurity ([4]; 60° C., day 5): 0.43%
- Content ([4]; 60° C., day 10): 101.6%
- Crystal Form ([4]; 60° C., day 10): Crystal Form B
- Total impurity ([4]; 60° C., day 10): 0.39%
- Content ([4]; 60° C., day 30): 99.4%
- Crystal Form ([4]; 60° C., day 30): Crystal Form B
- Total impurity ([4]; 60° C., day 30): 0.41%
- Content ([4]; light, day 0): 99.0%
- Crystal Form ([4]; light, day 0): Crystal Form B
- Total impurity ([4]; light, day 0): 0.42%
- Content ([4]; light, day 5): 101.0%
- Crystal Form ([4]; light, day 5): Crystal Form B
- Total impurity ([4]; light, day 5): 0.44%
- Content ([4]; light, day 10): 100.7%
- Crystal Form ([4]; light, day 10): Crystal Form B
- Total impurity ([4]; light, day 10): 0.42%
SMILES: Cc1cnn(C)c1-c1cc(N2CCOC[C@H]2C)nc(-c2cc(CO)cc3[nH]ccc23)n1 [Crystal Form B]
